The record followed here is DBAASP.

The MIC is the lowest concentration found to suppress growth. A high value points to a need for much substance.

Common to all, as to test: ≥ marks a high value that may be exact or a test limit, other limits are often not marked, values filed in µg/mL are converted to µM
For test [1], the system named is Escherichia coli NCTC 10418.
The test system of test [2] is Staphylococcus aureus NCTC 12981.
Test [3] concerns Pseudomonas aeruginosa ATCC 27853.
The test system of test [4] is Staphylococcus epidermidis ATCC 12228.
For test [5], the system named is Acinetobacter baumannii.
The subject of test [6] is Escherichia coli O157:H7.
The subject of test [7] is Vibrio cholerae O1 Inaba.
The subject of test [8] is Shigella sonnei ATCC 11060.
The subject of test [9] is Enterococcus faecalis ATCC 29212.
Test [10] deals with Listeria monocytogenes 10403s.
Test [11] deals with Escherichia coli ATCC 25922.
Test [12] concerns Salmonella enterica subsp. enterica serovar Typhimurium ATCC 13311.
In test [13] the test system is Bacillus cereus ATCC 11778.
In test [14] the test system is Staphylococcus aureus ATCC 25923.
In test [15] the test system is Vibrio harveyi.
The test system of test [16] is Aeromonas hydrophila.
Test [17] relates to Salmonella enterica ATCC 6539.
Test [18] concerns Klebsiella pneumoniae ATCC 700603.
Test [19] deals with Staphylococcus aureus ATCC 43300.
Test [20] has as its system Acinetobacter baumannii ATCC BAA-747.
The subject of test [21] is Enterococcus faecium ATCC 700221.
Test [22] deals with Escherichia coli.
For test [23], the system named is Bifidobacterium longum subsp. infantis.
For test [24], the system named is Staphylococcus aureus.
Test [25] has as its system Cryptococcus neoformans ATCC 208821.
Test [26] relates to Candida albicans ATCC 90028.
Test [27] has as its system Staphylococcus aureus SH1000.
Test [28] deals with Acinetobacter baumannii ATCC 19606.
The test system of test [29] is Salmonella enterica subsp. enterica serovar Enteritidis.
For test [30], the system named is Yersinia enterocolitica.
In test [31] the test system is Staphylococcus aureus ATCC 29213.
The test system of test [32] is Salmonella sp.
In test [33] the test system is Cryptococcus neoformans ATCC 32264.
In test [34] the test system is Escherichia coli W3110.
The test system of test [35] is Klebsiella pneumoniae ATCC BAA-1705.
The test system of test [36] is Klebsiella aerogenes LMG 02094.
Test [37] deals with Klebsiella pneumoniae LMG 20218.
The subject of test [38] is Acinetobacter baumannii LMG 01041.
Test [39] deals with Pseudomonas aeruginosa LMG 6395.
The subject of test [40] is Escherichia coli LMG 15862.

The structures appear in SMILES notation. Converted amounts (≈) assume the structure as drawn.

As to `NC(=O)CC[C@H](NC(=O)[C@H](CCCN=C(N)N)NC(=O)[C@H](CCCN=C(N)N)NC(=O)[C@@H](N)Cc1c[nH]c2ccccc12)C(=O)N[C@@H](CCCN=C(N)N)C(=O)N[C@@H](Cc1c[nH]c2ccccc12)C(N)=O` [WRRQRW], the MIC in [1] and in test [2] was at least 130 µM each time.
In the case of `CC[C@H](C)[C@H](NC(=O)[C@H](CCCN=C(N)N)NC(=O)[C@H](CCCCN)NC(=O)[C@H](CCCCN)NC(=O)[C@@H](NC(=O)[C@H](CCCCN)NC(=O)[C@H](CCC(=O)O)NC(=O)[C@H](CCCCN)NC(=O)[C@@H](N)CCCN=C(N)N)[C@@H](C)CC)C(=O)NCC(=O)N[C@@H](CCCCN)C(=O)N[C@H](C(=O)N[C@@H](CC(=O)O)C(=O)N[C@@H](CCCN=C(N)N)C(=O)N[C@@H](CC(C)C)C(N)=O)[C@@H](C)CC` [RKEKIKKRIGKIDRL], the MIC in test [3] is over 133 µM; in test [4] it was over 133 µM; in test [5], at least 133 µM; in test [6], at least 133 µM; in test [7], at least 133 µM; in test [8], at least 133 µM. The MIC was over 133 µM in test [9]; at least 133 µM in [10]; over 133 µM in [11]; at least 133 µM in test [12]; at least 133 µM in test [13]; over 133 µM in [14].
As to `CC[C@H](C)[C@H](NC(=O)[C@H](C)NC(=O)[C@H](CCCN=C(N)N)NC(=O)[C@H](Cc1cnc[nH]1)NC(=O)[C@@H](NC(=O)[C@H](C)NC(=O)[C@H](CCCN=C(N)N)NC(=O)[C@@H](NC(=O)CNC(=O)[C@H](Cc1cnc[nH]1)NC(=O)[C@H](CO)NC(=O)[C@@H](NC(=O)[C@H](Cc1c[nH]c2ccccc12)NC(=O)CNC(=O)[C@@H](NC(=O)[C@@H](NC(=O)[C@H](Cc1cnc[nH]1)NC(=O)[C@H](Cc1cnc[nH]1)NC(=O)[C@@H](NC(=O)[C@@H](N)Cc1ccccc1)[C@@H](C)CC)[C@@H](C)CC)[C@@H](C)CC)[C@@H](C)CC)C(C)C)[C@@H](C)CC)C(=O)N[C@@H](Cc1cnc[nH]1)C(N)=O` [FIHHIIGWISHGVRAIHRAIH], the MIC was 8 µM (≈ 19.8 µg/mL) in test [15] and 16 µM (≈ 39.5 µg/mL) in test [16].
Regarding `NCC(=O)NCC(=O)N[C@@H](Cc1cnc[nH]1)C(=O)NCC(=O)N[C@@H](Cc1c[nH]c2ccccc12)C(=O)N[C@@H](CCCN=C(N)N)C(=O)N[C@@H](Cc1c[nH]c2ccccc12)C(=O)N[C@@H](Cc1ccc(O)cc1)C(=O)N[C@@H](CS)C(=O)N[C@@H](CCCN=C(N)N)C(N)=O` [GGHGWRWYCR], the MIC was 25 µM (≈ 31.9 µg/mL) in test [3]; 6 µM (≈ 7.66 µg/mL) in test [17]; 25 µM (≈ 31.9 µg/mL) in [18]; 3 µM (≈ 3.83 µg/mL) in test [19]; 25 µM (≈ 31.9 µg/mL) in test [20]; 25 µM (≈ 31.9 µg/mL) in test [21]. The MIC in [11] is 3 µM (≈ 3.83 µg/mL).
In the case of `CC(C)C[C@H](NC(=O)[C@H](CC(N)=O)NC(=O)[C@@H]1CCCN1C(=O)[C@@H](N)CCCN=C(N)N)C(=O)N[C@@H](Cc1cnc[nH]1)C(=O)N1CCC[C@H]1C(=O)N[C@@H](CO)C(=O)O` [RPNLHPS], the MIC was 3660 µM (≈ 3000 µg/mL) in test [22], at least 3660 µM in test [23] and 3660 µM (≈ 3000 µg/mL) in [24].
`CC[C@H](C)[C@H](NC(=O)[C@H](CC(=O)O)NC(=O)[C@H](Cc1ccccc1)NC(=O)[C@H](CC(C)C)NC(=O)CN)C(=O)N[C@H](C(=O)N[C@@H](CCCCN)C(=O)N[C@@H](CCCCN)C(=O)N[C@H](C(=O)N[C@H](C(=O)NCC(=O)N[C@@H](C)C(=O)N[C@@H](CC(C)C)C(=O)NCC(N)=O)C(C)C)C(C)C)C(C)C` [GLFDIVKKVVGALG]: the MIC in test [3] is over 23 µM; in test [25], 23 µM (≈ 32.5 µg/mL); in [18], over 23 µM; in [19], over 23 µM; in [26], 23 µM (≈ 32.5 µg/mL); in test [11] it was over 23 µM. Also, the MIC was at least 50 µM in test [27] and over 23 µM in test [28].
Consider `CC[C@H](C)[C@H](NC(=O)[C@H](CCCCN)NC(=O)[C@@H](NC(=O)[C@H](Cc1c[nH]c2ccccc12)NC(=O)[C@H](Cc1ccccc1)NC(=O)[C@H](CCC(N)=O)NC(=O)[C@H](CC(N)=O)NC(=O)[C@H](CCCN=C(N)N)NC(=O)[C@H](CCCN=C(N)N)NC(=O)[C@H](CCSC)NC(=O)[C@H](CCCCN)NC(=O)[C@H](Cc1c[nH]c2ccccc12)NC(=O)[C@H](CCCCN)NC(=O)[C@@H](N)CCCCN)[C@@H](C)CC)C(=O)N[C@@H](CCC(N)=O)C(=O)N[C@@H](CCCN=C(N)N)C(N)=O` [KKWKMRRNQFWIKIQR], for which the MIC in test [29] was 25 µM (≈ 56.1 µg/mL); in [30] it was at least 50 µM; in test [31], over 50 µM; in test [3], over 50 µM; in test [19], over 50 µM; in test [22], 25 µM (≈ 56.1 µg/mL). The MIC in test [11] is over 50 µM; in test [32] it was 25 µM (≈ 56.1 µg/mL).
For the compound `NCCCC[C@H](NC(=O)[C@H](CCCCN)NC(=O)[C@H](CCC(N)=O)NC(=O)[C@@H](N)CCCN=C(N)N)C(N)=O` [RQKK], the MIC in [33] is at least 100 µM.
On to `CC[C@H](C)[C@H](N)C(=O)N[C@@H](CC(C)C)C(=O)N[C@@H](Cc1c[nH]c2ccccc12)C(=O)N[C@@H](C)C(=O)N[C@@H](CCCCN)C(=O)N[C@@H](Cc1c[nH]c2ccccc12)C(=O)NCC(=O)N[C@@H](CC(C)C)C(=O)N[C@@H](CCCCN)C(=O)N[C@@H](CC(C)C)C(=O)N[C@@H](CC(C)C)C(=O)N[C@@H](CCCN=C(N)N)C(=O)N[C@@H](Cc1ccc(O)cc1)C(=O)N[C@@H](CCCN=C(N)N)C(=O)N[C@@H](CCCN=C(N)N)C(=O)N[C@H](C(=O)N[C@@H](Cc1ccc(O)cc1)C(=O)O)[C@@H](C)CC` [ILWAKWGLKLLRYRRIY], for which the MIC in [34] was 4 µM (≈ 9 µg/mL); in test [35] it was at least 64 µM.
With `CC[C@H](C)[C@H](NC(=O)[C@H](CCCN=C(N)N)NC(=O)[C@H](CCCCN)NC(=O)[C@H](CCCN=C(N)N)NC(=O)[C@@H](NC(=O)[C@@H](N)CCCN=C(N)N)[C@@H](C)CC)C(=O)N[C@@H](CCCCN)C(=O)N[C@@H](CCCCN)C(=O)N[C@@H](Cc1c[nH]c2ccccc12)C(=O)N[C@@H](CC(C)C)C(=O)N[C@@H](CCCN=C(N)N)C(N)=O` [RIRKRIKKWLR], the MIC in test [36] was at least 256 µM; in [37], at least 256 µM; in test [38], at least 256 µM; in [39] it was 16 µM (≈ 24.8 µg/mL); in [40], 16 µM (≈ 24.8 µg/mL).
